Results from ChEMBL document CHEMBL5291721, “A preclinical secondary pharmacology resource illuminates target-adverse drug reaction associations of marketed drugs” (Nat Commun, 2023).

Key:
[1] = target: Sodium-dependent noradrenaline transporter (Homo sapiens, UniProt P23975)
Vasopressin V2 receptor = Vasopressin V2 receptor (Homo sapiens, UniProt P30518)
[2] = target: T1, Amine oxidase [flavin-containing] A (Homo sapiens, UniProt P21397); assay type: functional
T1 sequence (P21397 whole entry): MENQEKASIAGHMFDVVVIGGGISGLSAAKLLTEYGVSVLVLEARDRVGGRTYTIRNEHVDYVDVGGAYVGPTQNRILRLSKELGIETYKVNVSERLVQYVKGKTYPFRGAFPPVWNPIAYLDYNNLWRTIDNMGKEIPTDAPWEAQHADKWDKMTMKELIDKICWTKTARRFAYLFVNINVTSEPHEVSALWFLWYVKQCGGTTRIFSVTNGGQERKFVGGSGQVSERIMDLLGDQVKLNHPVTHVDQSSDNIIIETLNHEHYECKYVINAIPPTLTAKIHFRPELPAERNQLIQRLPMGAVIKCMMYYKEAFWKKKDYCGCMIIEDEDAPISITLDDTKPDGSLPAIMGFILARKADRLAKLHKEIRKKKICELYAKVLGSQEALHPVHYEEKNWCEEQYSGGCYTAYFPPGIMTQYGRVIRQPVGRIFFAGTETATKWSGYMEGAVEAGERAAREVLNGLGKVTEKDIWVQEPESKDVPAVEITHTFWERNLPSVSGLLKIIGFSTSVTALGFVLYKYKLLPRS

[3] = target: T2, 5-hydroxytryptamine receptor 1A (Homo sapiens, UniProt P08908); assay type: functional, cell-based
T2 sequence (P08908 whole entry): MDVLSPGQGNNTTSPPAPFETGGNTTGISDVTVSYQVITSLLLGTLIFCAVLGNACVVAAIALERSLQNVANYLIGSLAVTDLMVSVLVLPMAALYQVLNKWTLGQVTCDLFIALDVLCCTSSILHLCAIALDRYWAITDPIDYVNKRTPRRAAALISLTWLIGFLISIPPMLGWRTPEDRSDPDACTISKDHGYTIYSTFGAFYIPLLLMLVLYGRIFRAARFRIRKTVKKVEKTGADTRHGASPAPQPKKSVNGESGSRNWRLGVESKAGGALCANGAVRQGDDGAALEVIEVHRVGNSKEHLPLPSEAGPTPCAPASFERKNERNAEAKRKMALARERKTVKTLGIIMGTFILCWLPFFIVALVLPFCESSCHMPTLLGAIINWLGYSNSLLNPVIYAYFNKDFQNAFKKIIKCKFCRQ

[4] = target: 5-hydroxytryptamine receptor 2B (Homo sapiens, UniProt P41595); assay type: functional, cell-based
5-hydroxytryptamine receptor 2B, sequence (P41595 whole entry): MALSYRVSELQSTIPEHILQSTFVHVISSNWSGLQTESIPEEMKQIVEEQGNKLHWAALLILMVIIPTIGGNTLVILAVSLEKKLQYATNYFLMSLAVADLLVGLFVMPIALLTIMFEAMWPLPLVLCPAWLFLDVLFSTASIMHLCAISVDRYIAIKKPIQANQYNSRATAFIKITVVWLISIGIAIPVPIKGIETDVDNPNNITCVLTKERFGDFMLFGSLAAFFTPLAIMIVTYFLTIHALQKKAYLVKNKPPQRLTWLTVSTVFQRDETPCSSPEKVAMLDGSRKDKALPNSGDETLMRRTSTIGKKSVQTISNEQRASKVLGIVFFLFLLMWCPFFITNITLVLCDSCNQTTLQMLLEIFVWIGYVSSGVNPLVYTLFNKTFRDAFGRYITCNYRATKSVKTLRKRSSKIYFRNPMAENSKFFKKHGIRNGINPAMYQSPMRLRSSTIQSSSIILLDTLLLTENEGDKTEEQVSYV

[5] = target: T3, Prostaglandin G/H synthase 1 (Rattus norvegicus, UniProt Q63921); assay type: functional
T3 sequence (Q63921 whole entry): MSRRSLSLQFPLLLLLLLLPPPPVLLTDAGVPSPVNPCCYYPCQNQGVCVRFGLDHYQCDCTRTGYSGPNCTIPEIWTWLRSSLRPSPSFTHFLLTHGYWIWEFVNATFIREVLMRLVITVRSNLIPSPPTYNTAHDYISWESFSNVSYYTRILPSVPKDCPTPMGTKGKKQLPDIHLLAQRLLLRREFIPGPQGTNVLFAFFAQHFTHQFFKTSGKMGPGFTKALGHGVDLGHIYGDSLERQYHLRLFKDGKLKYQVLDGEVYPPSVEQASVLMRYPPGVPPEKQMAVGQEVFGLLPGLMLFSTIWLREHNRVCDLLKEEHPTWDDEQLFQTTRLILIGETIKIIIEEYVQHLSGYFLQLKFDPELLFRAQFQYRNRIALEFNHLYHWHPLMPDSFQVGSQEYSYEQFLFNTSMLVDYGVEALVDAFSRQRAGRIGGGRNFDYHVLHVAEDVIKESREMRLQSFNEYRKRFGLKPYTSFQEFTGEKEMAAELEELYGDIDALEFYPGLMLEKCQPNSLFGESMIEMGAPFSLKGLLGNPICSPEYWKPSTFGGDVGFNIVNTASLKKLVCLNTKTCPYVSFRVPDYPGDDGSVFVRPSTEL

[6] = target: T4, Alpha-2A adrenergic receptor (Homo sapiens, UniProt P08913); assay type: functional, cell-based
T4 sequence (P08913 whole entry): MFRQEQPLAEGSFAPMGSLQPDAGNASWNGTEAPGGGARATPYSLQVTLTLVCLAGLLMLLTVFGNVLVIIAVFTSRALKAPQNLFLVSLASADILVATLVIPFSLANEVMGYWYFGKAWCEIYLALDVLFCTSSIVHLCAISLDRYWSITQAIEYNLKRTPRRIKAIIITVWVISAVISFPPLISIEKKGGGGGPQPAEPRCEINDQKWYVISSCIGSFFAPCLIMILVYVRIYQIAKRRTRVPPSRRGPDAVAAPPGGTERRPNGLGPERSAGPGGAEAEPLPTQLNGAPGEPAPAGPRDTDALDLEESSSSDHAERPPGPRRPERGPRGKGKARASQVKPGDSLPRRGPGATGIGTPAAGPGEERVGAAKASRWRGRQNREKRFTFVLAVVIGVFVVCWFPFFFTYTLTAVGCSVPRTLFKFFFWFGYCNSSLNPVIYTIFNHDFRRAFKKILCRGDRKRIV

Melanocortin receptor 3 = Melanocortin receptor 3 (Homo sapiens, UniProt P41968)
Melanocortin receptor 3, sequence (P41968 whole entry): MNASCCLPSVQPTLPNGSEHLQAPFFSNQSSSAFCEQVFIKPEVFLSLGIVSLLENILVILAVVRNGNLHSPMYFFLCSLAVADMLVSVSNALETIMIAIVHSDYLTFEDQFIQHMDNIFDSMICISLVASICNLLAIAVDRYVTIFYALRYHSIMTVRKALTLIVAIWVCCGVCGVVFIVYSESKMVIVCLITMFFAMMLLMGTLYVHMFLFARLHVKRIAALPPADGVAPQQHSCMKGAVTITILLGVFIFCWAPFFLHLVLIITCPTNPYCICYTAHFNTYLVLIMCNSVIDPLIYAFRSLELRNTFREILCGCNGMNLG

Thromboxane A2 receptor = target: T5, Thromboxane A2 receptor (Homo sapiens, UniProt P21731)
T5 sequence (P21731 whole entry): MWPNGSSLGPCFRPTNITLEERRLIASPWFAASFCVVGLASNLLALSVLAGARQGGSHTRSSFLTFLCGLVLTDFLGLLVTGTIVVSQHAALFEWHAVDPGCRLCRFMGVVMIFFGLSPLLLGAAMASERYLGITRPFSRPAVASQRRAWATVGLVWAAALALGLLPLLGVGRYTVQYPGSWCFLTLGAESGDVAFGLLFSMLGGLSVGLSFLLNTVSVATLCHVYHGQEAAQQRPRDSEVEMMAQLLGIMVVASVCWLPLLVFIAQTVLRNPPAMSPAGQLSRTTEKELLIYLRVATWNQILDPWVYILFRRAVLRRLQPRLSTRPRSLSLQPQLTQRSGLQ
Note: assay procedure not described here.

Sodium-dependent noradrenaline transporter, sequence (P23975 whole entry): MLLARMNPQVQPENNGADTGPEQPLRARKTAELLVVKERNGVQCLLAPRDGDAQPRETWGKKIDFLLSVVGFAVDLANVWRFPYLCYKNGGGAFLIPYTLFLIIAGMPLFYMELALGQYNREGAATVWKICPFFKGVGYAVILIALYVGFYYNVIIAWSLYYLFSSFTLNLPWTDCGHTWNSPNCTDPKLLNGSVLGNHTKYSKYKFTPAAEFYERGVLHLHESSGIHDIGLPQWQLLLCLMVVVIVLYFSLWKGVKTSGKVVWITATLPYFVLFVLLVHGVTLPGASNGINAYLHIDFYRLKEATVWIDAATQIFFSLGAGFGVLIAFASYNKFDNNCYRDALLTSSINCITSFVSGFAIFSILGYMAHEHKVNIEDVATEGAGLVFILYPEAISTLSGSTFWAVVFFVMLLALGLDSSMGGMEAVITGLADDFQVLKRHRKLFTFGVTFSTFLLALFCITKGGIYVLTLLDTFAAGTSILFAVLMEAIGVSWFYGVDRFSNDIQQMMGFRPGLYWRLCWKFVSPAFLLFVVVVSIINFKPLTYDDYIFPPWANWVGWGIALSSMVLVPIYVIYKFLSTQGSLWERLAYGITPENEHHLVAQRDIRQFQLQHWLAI
Vasopressin V2 receptor, sequence (P30518 whole entry): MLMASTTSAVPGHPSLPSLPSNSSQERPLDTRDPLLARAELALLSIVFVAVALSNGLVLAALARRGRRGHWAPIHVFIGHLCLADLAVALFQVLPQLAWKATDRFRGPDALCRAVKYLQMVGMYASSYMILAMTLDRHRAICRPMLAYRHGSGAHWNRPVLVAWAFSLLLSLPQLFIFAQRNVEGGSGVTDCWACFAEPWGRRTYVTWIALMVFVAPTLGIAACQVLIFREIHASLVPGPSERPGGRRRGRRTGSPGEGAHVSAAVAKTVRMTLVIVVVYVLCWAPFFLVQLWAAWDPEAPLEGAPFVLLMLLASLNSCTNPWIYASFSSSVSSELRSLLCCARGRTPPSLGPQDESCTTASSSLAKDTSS

**Q.** For `CC(C)C[C@H](CN)CC(=O)O` [PREGABALIN], which AC50 [1] is on record?
**A.** > 30 µM

**Q.** What about the AC50 (Vasopressin V2 receptor) of the same compound?
**A.** > 30 µM

**Q.** What about the AC50 [2] of the same compound?
**A.** > 30 µM

**Q.** And the AC50 [3]?
**A.** > 30 µM

**Q.** And the AC50 [4]?
**A.** 28 µM

**Q.** What about the AC50 [5] of the same compound?
**A.** > 30 µM

**Q.** What about the AC50 [6] of the same compound?
**A.** > 30 µM

**Q.** What about the AC50 (Melanocortin receptor 3) of the same compound?
**A.** > 30 µM

**Q.** And the AC50 (Thromboxane A2 receptor)?
**A.** > 30 µM

**Q.** `NC(=O)c1ncn([C@@H]2O[C@H](CO)[C@@H](O)[C@H]2O)n1` [RIBAVIRIN] was tested. Which AC50 [1] did it give?
**A.** > 10 µM

**Q.** And the AC50 (Vasopressin V2 receptor)?
**A.** > 10 µM

**Q.** And the AC50 [2]?
**A.** > 10 µM

**Q.** What about the AC50 [3] of the same compound?
**A.** > 10 µM

**Q.** And the AC50 [4]?
**A.** > 10 µM

**Q.** What about the AC50 [5] of the same compound?
**A.** > 10 µM

**Q.** What about the AC50 [6] of the same compound?
**A.** > 10 µM

**Q.** And the AC50 (Melanocortin receptor 3)?
**A.** > 10 µM

**Q.** What about the AC50 (Thromboxane A2 receptor) of the same compound?
**A.** > 10 µM

**Q.** With `O=C(Nc1c(Cl)cncc1Cl)c1ccc(OC(F)F)c(OCC2CC2)c1` [ROFLUMILAST] as the compound, how does the AC50 [1] read?
**A.** > 30 µM

**Q.** What about the AC50 (Vasopressin V2 receptor) of the same compound?
**A.** > 30 µM

**Q.** What about the AC50 [2] of the same compound?
**A.** > 30 µM

**Q.** And the AC50 [3]?
**A.** > 30 µM

**Q.** And the AC50 [4]?
**A.** > 30 µM

**Q.** And the AC50 [5]?
**A.** > 30 µM

**Q.** What about the AC50 [6] of the same compound?
**A.** > 30 µM

**Q.** And the AC50 (Melanocortin receptor 3)?
**A.** > 30 µM

**Q.** What about the AC50 (Thromboxane A2 receptor) of the same compound?
**A.** > 30 µM

**Q.** Which AC50 [1] does the source give for `CCCN(CCC)CCc1cccc2c1CC(=O)N2` [ROPINIROLE] here?
**A.** > 30 µM

**Q.** What about the AC50 (Vasopressin V2 receptor) of the same compound?
**A.** > 30 µM

**Q.** What about the AC50 [2] of the same compound?
**A.** > 30 µM

**Q.** What about the AC50 [3] of the same compound?
**A.** > 30 µM

**Q.** What about the AC50 [4] of the same compound?
**A.** 2.76 µM

**Q.** What about the AC50 [5] of the same compound?
**A.** > 30 µM

**Q.** What about the AC50 [6] of the same compound?
**A.** > 30 µM

**Q.** What about the AC50 (Melanocortin receptor 3) of the same compound?
**A.** > 30 µM

**Q.** And the AC50 (Thromboxane A2 receptor)?
**A.** > 30 µM

**Q.** Which results are given for `CC(C)N(CCCCOCC(=O)NS(C)(=O)=O)c1cnc(-c2ccccc2)c(-c2ccccc2)n1` [SELEXIPAG]?
**A.** AC50 [1]: > 30 µM; AC50 (Vasopressin V2 receptor): > 30 µM; AC50 [2]: > 30 µM; AC50 [3]: > 30 µM; AC50 [4]: > 30 µM; AC50 [5]: > 30 µM; AC50 [6]: > 30 µM; AC50 (Melanocortin receptor 3): > 30 µM; AC50 (Thromboxane A2 receptor): 23.9 µM

**Q.** How did the AC50 [1] turn out when `CC(=O)S[C@@H]1CC2=CC(=O)CC[C@]2(C)[C@H]2CC[C@@]3(C)[C@@H](CC[C@@]34CCC(=O)O4)[C@H]12` [SPIRONOLACTONE] was run?
**A.** > 30 µM

**Q.** And the AC50 (Vasopressin V2 receptor)?
**A.** > 30 µM

**Q.** And the AC50 [2]?
**A.** > 30 µM

**Q.** And the AC50 [3]?
**A.** > 30 µM

**Q.** And the AC50 [4]?
**A.** > 30 µM

**Q.** What about the AC50 [5] of the same compound?
**A.** > 30 µM

**Q.** What about the AC50 [6] of the same compound?
**A.** > 30 µM

**Q.** What about the AC50 (Melanocortin receptor 3) of the same compound?
**A.** > 30 µM

**Q.** What about the AC50 (Thromboxane A2 receptor) of the same compound?
**A.** > 30 µM

**Q.** For `CCCCNc1ccc(C(=O)OCCN(C)C)cc1` [TETRACAINE], which AC50 [1] is on record?
**A.** > 10 µM

**Q.** What about the AC50 (Vasopressin V2 receptor) of the same compound?
**A.** > 30 µM

**Q.** What about the AC50 [2] of the same compound?
**A.** 0.97 µM

**Q.** And the AC50 [3]?
**A.** > 10 µM

**Q.** And the AC50 [4]?
**A.** > 10 µM

**Q.** And the AC50 [5]?
**A.** > 30 µM

**Q.** And the AC50 [6]?
**A.** > 10 µM

**Q.** What about the AC50 (Melanocortin receptor 3) of the same compound?
**A.** > 30 µM

**Q.** And the AC50 (Thromboxane A2 receptor)?
**A.** > 30 µM

**Q.** `Cn1c(=O)c2[nH]cnc2n(C)c1=O` [THEOPHYLLINE] was tested. Which AC50 [1] did it give?
**A.** > 30 µM

**Q.** What about the AC50 (Vasopressin V2 receptor) of the same compound?
**A.** > 30 µM

**Q.** What about the AC50 [2] of the same compound?
**A.** > 10 µM

**Q.** What about the AC50 [3] of the same compound?
**A.** > 10 µM

**Q.** And the AC50 [4]?
**A.** > 10 µM

**Q.** And the AC50 [5]?
**A.** > 30 µM

**Q.** What about the AC50 [6] of the same compound?
**A.** > 10 µM

**Q.** And the AC50 (Melanocortin receptor 3)?
**A.** > 30 µM

**Q.** And the AC50 (Thromboxane A2 receptor)?
**A.** > 30 µM

**Q.** What does the source list for `CC1(C)O[C@@H]2[C@@H](CO[C@@]3(COS(N)(=O)=O)OC(C)(C)O[C@@H]23)O1` [TOPIRAMATE]?
**A.** AC50 [1]: > 10 µM; AC50 (Vasopressin V2 receptor): > 30 µM; AC50 [2]: > 10 µM; AC50 [3]: > 10 µM; AC50 [4]: > 10 µM; AC50 [5]: > 30 µM; AC50 [6]: > 10 µM; AC50 (Melanocortin receptor 3): > 30 µM; AC50 (Thromboxane A2 receptor): > 30 µM

**Q.** For `Cc1cc(CC(=O)O)n(C)c1C(=O)c1ccc(Cl)cc1` [ZOMEPIRAC], which AC50 [1] is on record?
**A.** > 30 µM

**Q.** And the AC50 (Vasopressin V2 receptor)?
**A.** > 30 µM

**Q.** What about the AC50 [2] of the same compound?
**A.** > 30 µM

**Q.** What about the AC50 [3] of the same compound?
**A.** > 30 µM

**Q.** What about the AC50 [4] of the same compound?
**A.** > 30 µM

**Q.** What about the AC50 [5] of the same compound?
**A.** 16 µM

**Q.** And the AC50 [6]?
**A.** > 30 µM

**Q.** What about the AC50 (Melanocortin receptor 3) of the same compound?
**A.** > 30 µM

**Q.** And the AC50 (Thromboxane A2 receptor)?
**A.** > 30 µM
